Ends that are not written are not given here. * marks the point of attachment. Octanoyl = CCCCCCCC(=O)*
Columns and labels:
[1] = tested on: pericytes coverage of capillaries; assay: Pericyte coverage of isolated capillaries after ghrelin administration; assay type: in vivo, mouse; conditions: 3×Tg-AD mice aged 9 months; ghrelin s.c. per day every 2 days for 2 weeks vs vehicle (saline); P<0.001
Text: (§1) Triple transgenic mice, 3×Tg-AD, containing three mutations ([…], APP Swedish and MAPT P301L), are widely used as an animal model of FAD. Age and gender-matched B6129SF2/J strain were used as the wild type (WT) control. Mice were obtained from the Jackson Laboratory and bred in our research institute's animal facility. Mice were housed in plastic cages on a 12 hr/12 hr light/dark cycle with ad libitum access to water and standard rodent diet. Animal usage was approved by California Medical Innovations Institute (CalMI2) Institutional Animal Care and Use Committee (IACUC). The genotyping was conducted in CalMI2 animal facilities at the age of 21 days by tail DNA extraction according to our previous protocol and the online information supplied by the vendor. […]
(§2) The isolated microvessel fragments were smeared onto Superfrost Plus pre-cleaned glass microscope slides and fixed using ICC Fixation Buffer (BD Pharmingen) for 15 min at room temperature (RT). […] For coverage analysis, the percentage of PDGFRβ-positive pericyte area covering lectin-positive capillary area was quantified using Image J Area analysis as described previously. For the expression analysis of Aβ transporters, the area of LRP1, RAGE and Mdr1-occupied endothelium were measured as an area percentage normalized by the total area of lectin-positive capillaries using Image J Area measurement tool. […]

[2] = tested on: miR-126; assay: qPCR of capillary miR-126 after ghrelin administration; assay type: in vivo, mouse; conditions: 3×Tg-AD mice aged 9 months; ghrelin s.c. vs saline; P<0.05
Text: as §1
(§3) Total RNA was purified with Trizol reagent (Invitrogen), according to the manufacturer's instructions. To quantify miR-126-3p (MIMAT0000138), miR-145-5p (MIMAT0000157), miR-195-5p (MIMAT0000225), miR-21-5p (MIMAT0000530) and miR-29b-3p (MIMAT0000127), reverse transcription and quantitative PCR (qPCR) were performed using the TaqMan@ microRNA assay kit (Applied Biosystems) as previously described. […] Relative gene expression levels between wild type and 3×Tg-AD mice were determined using the comparative Ct (2^−ΔΔCt) method after normalizing to U6.

[3] = tested on: miR-145; assay: qPCR of capillary miR-145 after ghrelin administration; assay type: in vivo, mouse; conditions: 3×Tg-AD mice aged 9 months; ghrelin s.c. vs saline; P<0.05
Text: as §1, §3

[4] = tested on: 5 capillary miRNAs (miR-126, miR-145, miR-195, miR-21, miR-29b); assay: qPCR of 5 capillary miRNAs after ghrelin administration; assay type: in vivo, mouse; conditions: 9 months 3×Tg mice; ghrelin 600 μg/kg per day, every 2 days for 2 weeks S.C. vs saline
Text: as §1
as §3, with “U6. […]” for “U6.”

[5] = tested on: Aβ oligomers; assay: Aβ oligomers (ELISA, immunoblot) in microvessel-depleted cortex and hippocampus after ghrelin; assay type: in vivo, mouse
Text: as §1, with “vendor. Ten mice per strain (3×Tg-AD, B6129SF2/J) at the ages of 6, 9, and 12 months were used in this study.” for “vendor.”
The method has been described previously. […] After centrifugation at 12,000 rpm for 20 min, protein content was determined by Bradford assay. […]
Human Aβ oligomers were analyzed in the microvessel-depleted cortex and hippocampal supernatant by enzyme-linked immunosorbent assay (ELISA; IBL International, Germany) according to manufacturer's instructions. […]

[6] = tested on: RAGE; assay: Expression of Aβ transporters in isolated capillaries after ghrelin (immunofluorescence); assay type: in vivo, mouse; conditions: 3×Tg-AD mice aged 9 months; ghrelin vs saline-injected group
Text: as §1, §2

[7] = tested on: Aβ plaque; conditions: 5×FAD mice with ghrelin treatment; cited from earlier work

## n-octanoylated ghrelin (GSS(Octanoyl)FLSPEHQRVQQRKESKKPPAKLQPR; UniProt Q9UBU3 24-51, looked up) [neuropeptide "hunger hormone" generated from ghrelinergic cells of the gastrointestinal tract; n-octanoylated ghrelin from AnaSpec]
[1]
  percentage of pericyte coverage: increased significantly
[2]
  expression level of capillary miR126 from hippocampus and cerebral cortex: significant increase
[3]
  expression level of capillary miR-145 from hippocampus and cerebral cortex: significant increase
[4]
  expression levels of all 5 capillary miRNAs in hippocampus and cerebral cortex: significant increase
[5]; 3×Tg-AD mice aged 9 months, ghrelin vs vehicle, ELISA and immunoblot, vessels-depleted hippocampus and cortex, P<0.05
  level of Aβ oligomers: significantly lower level
[5]; 9 months 3×Tg mice, ghrelin 600 μg/kg per day, every 2 days for 2 weeks S.C. vs saline, 6E10 and A11 antibodies
  Aβ levels (both APP and Aβ oligomers): significantly lower
[6]
  decline of relative expression of RAGE in isolated capillaries: ~10%
[7]
  Aβ plaque burden: no significant diminishment

Reference: patent US20200071699A1, “TREATMENT OF ALZHEIMERS DISEASE WITH MICRO RNA AND GHRELIN” (priority 2018, published 2020)
